Source: US20230146455A1, “TREATMENT OF INFLAMMATORY DISEASES WITH PEPTIDES AND PHARMACEUTICAL COMPOSITIONS” (Yuyu Pharma, Inc., priority 2020, published 2023)
Where “and” joins values, the source holds several entries; their conditions need not be identical. Equal entries are not always repeated. Where a SMILES comes first, the peptide text is derived from it. [ ]: non-standard residue; d: D form. Hyp = O=C(O)[C@@H]1C[C@@H](O)CN1

System: CCL20/MIP-3 alpha
Test: Example 9 Luminex, LPS hPBMCs: CCL20/MIP-3 alpha
Format: cell-based, human
Method: Treatment Human PBMCs were pretreated with YY-101, YDE-011 and YDE-043 or reference compound; Xiidra® at various concentration (ranging from 1 nM to 100 uM) for 2 h before stimulation. An equal volume of 0.5% DMSO was used as a vehicle control. Then, the cells were treated with LPS at 5 ug/ml. The supernatants from treated cells were harvested at 24 h and placed in a 96 well for Luminex cytokine & chemokine profiling using a Luminex 200 multiplex assay (Luminex; R&D system, USA).
The main study arm with triplicate wells per group in a 24-well plate: • 1. Blank • 2. PBMC: 0.5% DMSO • 3. PBMC+LPS (5 ug/ml) • 4. PBMC+YY-101 100 uM • 5. PBMC+YY-101 10 uM • 6. PBMC+YY-101 1 uM • 7. PBMC+YY-101 0.1 uM • 8. PBMC+YY-101 0.01 uM • 9. PBMC+LPS (5 ug/ml)+Xiidra®100 uM • 10. PBMC+LPS (5 ug/ml)+Xiidra® 10 uM • 11. PBMC+LPS (5 ug/ml)+Xiidra® 1 uM • 12. PBMC+LPS (5 ug/ml)+Xiidra®0.1 uM • 13. PBMC+LPS (5 ug/ml)+Xiidra®0.01 uM • 14. PBMC+LPS (5 ug/ml)+Xiidra®0.001 uM • 15. PBMC+LPS (5 ug/ml)+YY-101 100 uM • 16. PBMC+LPS (5 ug/ml)+YY-101 10 uM • 17. PBMC+LPS (5 ug/ml)+YY-101 1 uM • 18. PBMC+LPS (5 ug/ml)+YY-101 0.1 uM • 19. PBMC+LPS (5 ug/ml)+YY-101 0.01 uM • 20. PBMC+LPS (5 ug/ml)+YY-101 0.001 uM • 21. PBMC+LPS (5 ug/ml)+YDE-011 100 uM • 22. PBMC+LPS (5 ug/ml)+YDE-011 10 uM • 23. PBMC+LPS (5 ug/ml)+YDE-011 1 uM • 24. PBMC+LPS (5 ug/ml)+YDE-011 0.1 uM • 25. PBMC+LPS (5 ug/ml)+YDE-011 0.01 uM • 26. PBMC+LPS (5 ug/ml)+YDE-011 0.001 uM • 27. PBMC+LPS (5 ug/ml)+YDE-043 100 uM • 28. PBMC+LPS (5 ug/ml)+YDE-043 10 uM • 29. PBMC+LPS (5 ug/ml)+YDE-043 1 uM • 30. PBMC+LPS (5 ug/ml)+YDE-043 0.1 uM • 31. PBMC+LPS (5 ug/ml)+YDE-043 0.01 uM • 32. PBMC+LPS (5 ug/ml)+YDE-043 0.001 uM
Multiplex assay was used to measure 30 cytokines and chemokines. The 1:2, 1:10 and 1:200 diluted cell supernatant and serial dilution of the standard were dispensed into a 96 well plate at 50 ul/well. Then, the pre-mixed cocktail of antibody-coated magnetic beads was dispensed at 50 ul/well and incubated at room temperature for 2 h in a horizontal orbital microplate shaker at 800±500 rpm. The beads were washed using a magnetic device to prevent loss. The biotin-antibody was dispensed in 50 ul of each well and incubated at room temperature for 1 h in a shaker at 800±500 rpm. After washing, streptavidin-PE was added at 50 ul/well and incubated at room temperature for 30 min in a shaker under the same conditions. Finally, after washing, wash buffer (100 ul/well) was added to the plate and incubated in a shaker for 2 min. The Luminex™ 200 setting were set according to the manufacturer's protocol. The data was calculated with a standard five-parameter logistic nonlinear regression analysis of the data (xPonent software 4.2, USA). The levels of cytokine/chemokine are normalized to the live cell counts (1×10^5 cells/mL) and presented as concentrations per mL (pg/mL or ng/mL).

[1] = PBMC + LPS(5 ug/ml) + test article 0.001 uM, Mean
[2] = PBMC + LPS(5 ug/ml) + test article 0.001 uM, individual replicate
[3] = PBMC + LPS(5 ug/ml) + test article 0.01 uM, Mean
[4] = PBMC + LPS(5 ug/ml) + test article 0.01 uM, individual replicate
[5] = PBMC + LPS(5 ug/ml) + test article 0.1 uM, Mean
[6] = PBMC + LPS(5 ug/ml) + test article 0.1 uM, individual replicate
[7] = PBMC + LPS(5 ug/ml) + test article 1 uM, Mean
[8] = PBMC + LPS(5 ug/ml) + test article 1 uM, individual replicate
[9] = PBMC + LPS(5 ug/ml) + test article 10 uM, Mean
[10] = PBMC + LPS(5 ug/ml) + test article 10 uM, individual replicate
[11] = PBMC + LPS(5 ug/ml) + test article 100 uM, Mean
[12] = PBMC + LPS(5 ug/ml) + test article 100 uM, individual replicate

## CC(C)C[C@H](NC(=O)[C@H](CCC(N)=O)NC(=O)CNC(=O)[C@@H]1C[C@@H](O)CN1)C(=O)NCC(=O)O [YDE-043] (H-[Hyp]GQLG-OH; N-terminus and C-terminus assumed)
[1]
  Concentration, CCL20/MIP-3 alpha: 222.1 pg/mL
  MFI, CCL20/MIP-3 alpha: 234.3
  conc/live cell, CCL20/MIP-3 alpha: 45.5 pg/10^5
[2]
  Concentration, CCL20/MIP-3 alpha: 237.5 pg/mL and 214.3 pg/mL and 214.7 pg/mL
  MFI, CCL20/MIP-3 alpha: 252.5 and 225.0 and 225.5
  conc/live cell, CCL20/MIP-3 alpha: 54.0 pg/10^5 and 35.7 pg/10^5 and 46.7 pg/10^5
[3]
  Concentration, CCL20/MIP-3 alpha: 257.4 pg/mL
  MFI, CCL20/MIP-3 alpha: 276.3
  conc/live cell, CCL20/MIP-3 alpha: 49.7 pg/10^5
[4]
  Concentration, CCL20/MIP-3 alpha: 272.1 pg/mL and 235.8 pg/mL and 264.2 pg/mL
  MFI, CCL20/MIP-3 alpha: 294.0 and 250.5 and 284.5
  conc/live cell, CCL20/MIP-3 alpha: 60.5 pg/10^5 and 35.7 pg/10^5 and 52.8 pg/10^5
[5]
  Concentration, CCL20/MIP-3 alpha: 269.5 pg/mL
  MFI, CCL20/MIP-3 alpha: 290.8
  conc/live cell, CCL20/MIP-3 alpha: 50.0 pg/10^5
[6]
  Concentration, CCL20/MIP-3 alpha: 269.6 pg/mL and 266.7 pg/mL and 272.1 pg/mL
  MFI, CCL20/MIP-3 alpha: 291.0 and 287.5 and 294.0
  conc/live cell, CCL20/MIP-3 alpha: 53.9 pg/10^5 and 47.6 pg/10^5 and 48.6 pg/10^5
[7]
  Concentration, CCL20/MIP-3 alpha: 257.7 pg/mL
  MFI, CCL20/MIP-3 alpha: 276.7
  conc/live cell, CCL20/MIP-3 alpha: 48.8 pg/10^5
[8]
  Concentration, CCL20/MIP-3 alpha: 267.1 pg/mL and 251.7 pg/mL and 254.2 pg/mL
  MFI, CCL20/MIP-3 alpha: 288.0 and 269.5 and 272.5
  conc/live cell, CCL20/MIP-3 alpha: 46.1 pg/10^5 and 52.4 pg/10^5 and 48.0 pg/10^5
[9]
  Concentration, CCL20/MIP-3 alpha: 267.8 pg/mL
  MFI, CCL20/MIP-3 alpha: 288.8
  conc/live cell, CCL20/MIP-3 alpha: 49.6 pg/10^5
[10]
  Concentration, CCL20/MIP-3 alpha: 260.1 pg/mL and 260.9 pg/mL and 282.4 pg/mL
  MFI, CCL20/MIP-3 alpha: 279.5 and 280.5 and 306.5
  conc/live cell, CCL20/MIP-3 alpha: 50.0 pg/10^5 and 48.3 pg/10^5 and 50.4 pg/10^5
[11]
  Concentration, CCL20/MIP-3 alpha: 358.3 pg/mL
  MFI, CCL20/MIP-3 alpha: 399.5
  conc/live cell, CCL20/MIP-3 alpha: 56.9 pg/10^5
[12]
  Concentration, CCL20/MIP-3 alpha: 381.7 pg/mL and 334.8 pg/mL
  MFI, CCL20/MIP-3 alpha: 428.5 and 370.5
  conc/live cell, CCL20/MIP-3 alpha: 61.6 pg/10^5 and 52.3 pg/10^5
